Starred links: 1 amine or outer side, 2 acyl side, 3 side chain; linkers in the order of their positions; H or OH if unused. Positions of bridges follow the written chain, without caps; N, C: chain ends. Non-standard residues stand in square brackets, D forms with d. Residues, ends and D or L forms follow the SMILES beside them. *: point of attachment. Phe(4-NO2) = N[C@@H](Cc1ccc([N+](=O)[O-])cc1)C(=O)O; X1 = O=C(CCCCC[*:2])[*:1]; Dab = NCC[C@H](N)C(=O)O; X3 = c1ccc2cc(*)ccc2c1 Some results are limits rather than exact numbers.

The Ki is the equilibrium dissociation constant of an inhibitor or competing ligand from its target. High values mean a looser hold on the target, low ones a stronger hold on the target.

This assay has as its target T1, Dolichyl-diphosphooligosaccharide--protein glycosyltransferase 48 kDa subunit (UniProt P39656).
T1 sequence (P39656 whole entry): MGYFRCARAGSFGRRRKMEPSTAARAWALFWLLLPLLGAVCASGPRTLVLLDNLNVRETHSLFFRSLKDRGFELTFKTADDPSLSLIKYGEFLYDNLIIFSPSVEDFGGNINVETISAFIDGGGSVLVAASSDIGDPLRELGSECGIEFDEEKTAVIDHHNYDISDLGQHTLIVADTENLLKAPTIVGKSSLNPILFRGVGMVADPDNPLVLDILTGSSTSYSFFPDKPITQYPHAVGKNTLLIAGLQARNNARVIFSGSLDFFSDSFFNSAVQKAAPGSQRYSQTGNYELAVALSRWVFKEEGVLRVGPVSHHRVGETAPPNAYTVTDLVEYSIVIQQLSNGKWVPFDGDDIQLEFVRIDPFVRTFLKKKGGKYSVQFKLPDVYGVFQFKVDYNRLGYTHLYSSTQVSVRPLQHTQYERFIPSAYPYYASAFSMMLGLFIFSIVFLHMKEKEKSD
Description: Inhibition of asparagine-linked glycosylation by oligosaccharyl transferase. Also noted: species or system Saccharomyces cerevisiae.
Turning to `CC(C)[C@H](NC(=O)[C@@H](NC(=O)[C@@H]1CSCCCCCC(=O)N[C@@H](CCN)C(=O)N1)[C@@H](C)O)C(=O)N[C@H](C(=O)NCCc1ccccc1)[C@@H](C)O`, the inhibition constant Ki was 44 nM.

The molecule `CC(C)[C@H](NC(=O)[C@@H](NC(=O)CNC(=O)[C@H](CCCNCc1ccc([N+](=O)[O-])cc1)NCc1ccccc1)[C@@H](C)O)C(=O)N[C@H](C(N)=O)[C@@H](C)O` (HELM PEPTIDE1{[O=C([C@H](CCCNCc1ccc([N+](=O)[O-])cc1)NCc1ccccc1)[*:2]].G.T.V.T.[am]}$$$$V2.0) showed a Ki of 154 nM. With `[H][C@@](NC(=O)[C@@H]1CSCCCCCC(=O)N[C@@H](CCN)C(=O)N1)(C(=O)N[C@H](C(=O)N[C@H](C(=O)N[C@@H](Cc1ccc([N+](=O)[O-])cc1)C(N)=O)[C@@H](C)O)C(C)C)[C@@H](C)O` (HELM PEPTIDE1{[Dab].C.T.V.T.[O=C([C@H](Cc1ccc([N+](=O)[O-])cc1)N[*:1])[*:2]].[am]}|CHEM1{[O=C(CCCCC[*:2])[*:1]]}$PEPTIDE1,CHEM1,1:R1-1:R1|PEPTIDE1,CHEM1,2:R3-1:R2$$$V2.0) the figure was 37 nM; with `CC(C)[C@H](NC(=O)[C@@H](NC(=O)[C@@H]1CSCCCCCC(=O)N[C@@H](CCNc2ccc3ccccc3c2)C(=O)N1)[C@@H](C)O)C(=O)N[C@H](C(=O)NCCc1ccc([N+](=O)[O-])cc1)[C@@H](C)O`, 10 nM. The value for `CC(C)[C@H](NC(=O)[C@@H](NC(=O)CNC(=O)[C@H](CCCNCc1ccccc1)NCc1ccccc1)[C@@H](C)O)C(=O)N[C@H](C(N)=O)[C@H](C)O` was greater than 5000 nM; that for `CC(C)[C@H](NC(=O)[C@@H](NC(=O)[C@@H]1CSCCCCCC(=O)N[C@@H](CCNc2ccc3ccccc3c2)C(=O)N1)[C@@H](C)O)C(=O)N[C@H](C(=O)N[C@@H](Cc1ccc([N+](=O)[O-])cc1)C(N)=O)[C@@H](C)O` ([Dab](X3)CTVT[Phe(4-NO2)]-NH2; linker N-2 via X1) was 40 nM; that for `CC(C)[C@H](NC(=O)[C@@H](NC(=O)[C@@H]1CSCCCCCC(=O)N[C@@H](CCN)C(=O)N1)[C@@H](C)O)C(=O)N[C@H](C(=O)NCCc1ccc([N+](=O)[O-])cc1)[C@@H](C)O` was 20 nM. Molecule `CC(C)[C@H](NC(=O)[C@@H](NC(=O)[C@@H]1CSCCCCCC(=O)N[C@@H](CCN)C(=O)N1)[C@@H](C)O)C(=O)N[C@H](C(=O)NCCCCc1ccccc1)[C@@H](C)O` showed a Ki of 50 nM. With `CCCCCCCCCCNCC[C@@H]1NC(=O)CCCCCSC[C@@H](C(=O)N[C@H](C(=O)N[C@H](C(=O)N[C@H](C(=O)N[C@@H](Cc2ccc([N+](=O)[O-])cc2)C(N)=O)[C@@H](C)O)C(C)C)[C@@H](C)O)NC1=O` the figure was 61 nM; with `COc1ccc(CNCCC[C@H](NCc2ccccc2)C(=O)NCC(=O)N[C@H](C(=O)N[C@H](C(=O)N[C@H](C(N)=O)[C@@H](C)O)C(C)C)[C@@H](C)O)cc1` (HELM PEPTIDE1{[COc1ccc(CNCCC[C@H](NCc2ccccc2)C(=O)[*:2])cc1].G.T.V.T.[am]}$$$$V2.0), 305 nM. Molecule `CC(C)[C@H](NC(=O)[C@@H](NC(=O)[C@@H]1CSCCCCCC(=O)N[C@@H](CCN)C(=O)N1)[C@@H](C)O)C(=O)N[C@H](C(N)=O)[C@@H](C)O` displayed a Ki of 82 nM.

The values above are taken from ChEMBL document CHEMBL1133382, “Probing the extended binding determinants of oligosaccharyl transferase with synthetic inhibitors of asparagine-linked glycosylation” (Bioorg Med Chem Lett, 2000).
